Data on three compounds can be found in patent US20110251203A1, “USE OF PKC INHIBITORS IN DIABETIC COMPLICATIONS” (priority 2006, published 2011).

In this test the test system is transgenic (mRen-2)27 rats. Briefly: Streptozotocin-diabetic Ren-2 rat model of diabetic complications. Type of test: in vivo. Particulars: administered i.v. at a dose of from 0.1 to 10 mg/kg. As to the method:
Ren-2 rats (e.g. as disclosed in D. J. Kelly et al, Kidney Int, Vol 54, 1998, p343-352)
The effect of Compound A, B or C, on diabetic complications is tested in transgenic (mRen-2)27 rats (also called “Ren-2 rats”), model that develops hypertension and many of the structural and functional characteristics of human diabetic nephropathy when diabetes is induced by streptozotocin, resulting in a progressive disease with many of the structural, functional and molecular characteristics of human diabetic nephropathy. The progression of this disease is associated with an increase in renal and cardiac growth factors and extra cellular matrix accumulation.
The effect of the compounds of the invention on diabetic nephropathy may be studied with the Ren-2 rats model, as disclosed in D. J. Kelly et al, Diabetes, Vol 52, February 2003, p512-518: Diabetes is induced by injection of streptozotocin, 55 mg/kg. All diabetic rats receive insulin (human isophane) 2 units/day to promote body weight and reduce mortality. The experimental period continues for 16 weeks in Ren-2 rats to study advanced renal and cardiac disease. Rats are randomised to the following groups:
Group 1: non-diabetic Ren-2, no drug Group 2: non-diabetic Ren2, Compound C Group 3: non-diabetic Ren-2, Compound A Group 4: diabetic Ren-2 Group 5: diabetic Ren-2, drug Compound C, dose 1 Group 6: diabetic Ren-2, drug Compound A, dose 1 Group 7: diabetic Ren-2, drug Compound C, dose 2 Group 8: diabetic Ren-2, drug Compound A, dose 2 N=20 per group (160 rats) […]
The spatial distribution and quantitation of the immunohistochemistry by image analysis provide specific information regarding the cell type and location of disease progression. […]
The right kidney is snap frozen in liquid nitrogen and used for molecular biological experiments. Tissue and cell specific changes in expression may be quantifyed using immunohistochemistry with quantitative image analysis and real time PCR (ABI Prism 7700, Perkin Elmer Biosystems, Foster City, Calif.) with TaqMan, Such a PCR analysis is a technique well known by the one skilled in the art.

On to `CN1CCN(c2nc(C3=C(c4c[nH]c5ccccc45)C(=O)NC3=O)c3ccccc3n2)CC1` [Compound A, 3-(1.H.-indol-3-yl)-4-[2-(4-methyl-piperazin-1-yl)-quinazolin-4-yl]-pyrrole-2,5-dione], for which the “effect on the diabetic complications” value was “beneficial effect”.
To `O=C1NC(=O)C(c2c[nH]c3ccccc23)=C1c1nc(N2CCNCC2)nc2ccccc12` [Compound B, 3-(1.H.-indol-3-yl)-4-[2-(piperazin-1-yl)-quinazolin-4-yl]-pyrrole-2,5-dione] belongs “beneficial effect”.
On to `Cc1cccc2c(C3=C(c4nc(N5CCNC6(CC6)C5)cc5ccccc45)C(=O)NC3=O)c[nH]c12` [Compound C, 3-[3-(4,7-Diaza-spiro[2,5]oct-7-yl)-isoquinolin-1-yl]-4-(7-methyl-1H-indol-3-yl)-pyrrole-2,5-dione], for which the “effect on the diabetic complications” value was “beneficial effect”.
